The OligoGym collection
Several values for one entry are separate records, joined by “and”; a condition that tells them apart may be missing. Identical values can stand only once. HELM strings list units from the 5' end as sugar, base in round brackets, then linkage (d deoxyribose, r ribose, m 2'-O-methyl, p phosphodiester). Methylation of C is not given here. [moe] = 2'-O-(2-methoxyethyl) (MOE); [cEt] = constrained ethyl (cEt); [sp] = phosphorothioate linkage

Molecular target: HBV
Settings: ASO

Substance	target mRNA inhibition (HepG2, 0.07 µM)	also measured
RNA1{[moe](A)[sp].[moe](G)[sp].d(A)[sp].d(G)[sp].d(A)[sp].d(A)[sp].d(G)[sp].d(T)[sp].d(C)[sp].d(C)[sp].d(A)[sp].[moe](C)[sp].[moe](C)[sp].[moe](A)[sp].[moe](C)[sp].[moe](G)[sp].[moe](A)}$$$$V2.0	39% and 27%	–
RNA1{[moe](A)[sp].[moe](G)[sp].d(A)[sp].d(G)[sp].d(G)[sp].d(T)[sp].d(G)[sp].d(A)[sp].d(A)[sp].d(G)[sp].d(C)[sp].[moe](G)[sp].[moe](A)[sp].[moe](A)[sp].[moe](G)[sp].[moe](T)[sp].[moe](G)}$$$$V2.0	56%	–
RNA1{[moe](A)[sp].[moe](G)[sp].d(A)[sp].d(G)[sp].d(G)[sp].d(T)[sp].d(G)[sp].d(A)[sp].d(A)[sp].d(G)[sp].d(C)[sp].[moe](G)[sp].[moe](A)[sp].[moe](A)[sp].[moe](G)[sp].[moe](T)}$$$$V2.0	40% and 48%	–
RNA1{[moe](A)[sp].[moe](G)[sp].d(A)[sp].d(T)[sp].d(G)[sp].d(A)[sp].d(G)[sp].d(G)[sp].d(C)[sp].d(A)[sp].d(T)[sp].[moe](A)[sp].[moe](G)[sp].[moe](C)[sp].[moe](A)[sp].[moe](G)[sp].[moe](C)}$$$$V2.0	76% and 78%	–
RNA1{[moe](A)[sp].[moe](G)[sp].d(A)[sp].d(T)[sp].d(G)[sp].d(A)[sp].d(G)[sp].d(G)[sp].d(C)[sp].d(A)[sp].d(T)[sp].[moe](A)[sp].[moe](G)[sp].[moe](C)[sp].[moe](A)[sp].[moe](G)}$$$$V2.0	62% and 46%	–
RNA1{[moe](A)[sp].[moe](G)[sp].d(G)[sp].d(A)[sp].d(G)[sp].d(T)[sp].d(T)[sp].d(C)[sp].d(C)[sp].d(G)[sp].d(C)[sp].[moe](A)[sp].[moe](G)[sp].[moe](T)[sp].[moe](A)[sp].[moe](T)[sp].[moe](G)}$$$$V2.0	81% and 63%	–
RNA1{[moe](A)[sp].[moe](G)[sp].d(G)[sp].d(T)[sp].d(G)[sp].d(A)[sp].d(A)[sp].d(G)[sp].d(C)[sp].d(G)[sp].d(A)[sp].[moe](A)[sp].[moe](G)[sp].[moe](T)[sp].[moe](G)[sp].[moe](C)[sp].[moe](A)}$$$$V2.0	72% and 69%	–
RNA1{[moe](A)[sp].[moe](G)[sp].d(T)[sp].d(T)[sp].d(C)[sp].d(C)[sp].d(G)[sp].d(C)[sp].d(A)[sp].d(G)[sp].d(T)[sp].[moe](A)[sp].[moe](T)[sp].[moe](G)[sp].[moe](G)[sp].[moe](A)[sp].[moe](T)}$$$$V2.0	68% and 70%	–
RNA1{[moe](A)[sp].[moe](T)[sp].[moe](G)[sp].[moe](A)[sp].d(G)[sp].d(G)[sp].d(C)[sp].d(A)[sp].d(T)[sp].d(A)[sp].d(G)[sp].d(C)[sp].d(A)[sp].[moe](G)[sp].[moe](C)[sp].[moe](A)[sp].[moe](G)}$$$$V2.0	0%	–
RNA1{[moe](A)[sp].[moe](T)[sp].[moe](G)[sp].d(A)[sp].d(G)[sp].d(G)[sp].d(C)[sp].d(A)[sp].d(T)[sp].d(A)[sp].d(G)[sp].d(C)[sp].d(A)[sp].[cEt](G)[sp].[cEt](C)[sp].[cEt](A)}$$$$V2.0	71% and 73%	–
RNA1{[moe](A)[sp].[moe](T)[sp].[moe](T)[sp].[cEt](T)[sp].d(A)[sp].d(T)[sp].d(G)[sp].d(C)[sp].d(C)[sp].d(T)[sp].d(A)[sp].d(C)[sp].d(A)[sp].[cEt](G)[sp].[moe](C)[sp].[moe](C)[sp].[moe](T)}$$$$V2.0	–	target mRNA inhibition (HepG2, 0.009375 µM): 32%; target mRNA inhibition (HepG2, 0.01875 µM): 32%; target mRNA inhibition (HepG2, 0.0375 µM): 42%; target mRNA inhibition (HepG2, 0.075 µM): 62%; target mRNA inhibition (HepG2, 0.15 µM): 76%; target mRNA inhibition (HepG2, 0.3 µM): 80%
RNA1{[moe](A)[sp].[moe](T)[sp].[moe](T)[sp].[moe](T)[sp].d(A)[sp].d(T)[sp].d(G)[sp].d(C)[sp].d(C)[sp].d(T)[sp].d(A)[sp].d(C)[sp].d(A)[sp].[moe](G)[sp].[moe](C)[sp].[moe](C)}$$$$V2.0	52% and 49%	–
